Test results reported in publication PMC6767236, “Selective Cannabinoid 2 Receptor Agonists as Potential Therapeutic Drugs for the Treatment of Endotoxin-Induced Uveitis” (Molecules, 2019).
Values after ≈ are worked out from the molar mass of the structure shown. Like-named read-outs stand apart in the source and are kept apart here. Marks after values point to notes of the source that are not given here.

Legend:
[1] = Saturation (thermodynamic) solubility in buffer, FaSSIF, FeSSIF; format: physicochemical; conditions: thermodynamic from solid
Procedure: Saturation Solubility (= Thermodynamic Solubility)
Approximately 8.6 mg test compound per milliliter solvent/vehicle was stirred in HPLC vials (9 × 12 × 32 mm, Waters) at 350 rpm for 15 h. Samples of 10 µL each were taken and microscopically examined for presence of solid particles. If the active pharmacological ingredient (API) dissolved completely, more solid API was added, and stirring was continued for another 15 h. Addition of solid material was repeated up to 96 h or until residual solid particles could be detected. Samples of 0.5 mL were then transferred to Eppendorf Ultrafree filter tubes (Filter: PVDF 0.22 µm) and centrifuged at 14,500 rpm for 10 min. The filtrates were diluted in ethanol and analyzed for content by UPLC. The measurements were also conducted in 0.05 M aqueous phosphate buffer, fasted (FaSSIF), and fed (FeSSIF) simulated gastrointestinal fluid. […]

CYP2D6 = CYP2D6 (Homo sapiens, UniProt P10635); experiment: Cytochrome P450 inhibition assay, CYP2D6; format: in vitro ADME
human CB1R = target: T1, human CB1R (Homo sapiens, UniProt P21554)
T1 construct: host or cells: CHO

human CB2R = target: T2, human CB2R (Homo sapiens, UniProt P34972); conditions: cited from earlier work; for EC50: read-out: hCB2R: beta arrestin EC50
T2 construct: bgal (beta-galactosidase fragment of the PathHunter system, named only in the cell line's name); host or cells: CHO-K1 (CHOK1hCB2_bgal)

[2] = cited from earlier work; for Hepatocyte Clearance mouse: mouse hepatocytes, * previously published; for clearance in mouse hepatocytes (class in words): underlying data previously published
[3] = mouse, * previously published, cited from earlier work; for T1/2 / Tmax: oral, HU308 5 mg/kg, others 3 mg/kg; for F: oral 3 mg/kg
mouse CB2R = mouse CB2R (Mus musculus, UniProt P47936); experiment: cell-based; format: cell-based; parameters: bgal (beta-galactosidase fragment of the PathHunter system, named only in the cell line's name); host or cells: CHO-K1 (CHOK1mCB2_bgal)
Procedure: Assays were carried out using the PathHunter hCB1_bgal, hCB2_bgal, or mCB2_bgal CHOK1 β-arrestin recruitment assay kit (DiscoveRx, Fremont, CA, USA) as previously described. A total of 5000 cells per well were seeded in 384-well plates (Perkin Elmer, MA, USA) containing 20 μL cell culture medium and incubated for 16–18 h at 37 °C and 5% CO2. Cells were stimulated with 10 μM of each agonist or 11 increasing concentrations and incubated for 90 min at 37 °C and 5% CO2. […] The cells were incubated for 90 min at 37 °C and 5% CO2. Compounds in DMSO stock solutions were added using a HP D300 Digital Dispenser (Tecan, Mannedorf, Switzerland). The final concentration of organic solvent per assay point was ≤ 0.1%. The PathHunter Detection mixture was used, according to the manufacturer’s protocol, to determine the β-galactosidase enzyme activity. Detection mixture, 12 μL per well, was added and the plate was incubated for 1 h in the dark at room temperature. Chemiluminescence, indicated as relative light unit, was measured on an EnVision multilabel plate reader (Perkin Elmer, MA, USA).

neutrophils from WT mice = experiment: Transwell neutrophil migration assay towards CXCL2, WT neutrophils; format: cell-based, mouse; conditions: for CXCL2-induced neutrophil migration: WT neutrophils pre-treated 30 min, 10 nM CXCL2, RO6851228 at 0.01–1.0 μM
Procedure: As described previously, mouse neutrophils were isolated from the bone marrow of mice. Mice were euthanized, femur and tibia were dissected and flushed with ice-cold 1× Hanks balanced salt solution (HBSS; supplemented with […], pH7.5, and 0.5 mM EDTA; Invitrogen) through a sterile filter (70 μm). The suspension was centrifuged at 300× g for 12 min at 4 °C. EasySep™ neutrophil enrichment kit ([…] Technologies Inc., Vancouver, BC, Canada) was used to isolate neutrophils according to the manufacturer’s instructions. The isolated neutrophils were then washed once and the pelleted cells were suspended in RPMI (Invitrogen) containing 1% heat-inactivated fetal bovine serum (FBS, Invitrogen) and used immediately for neutrophil migration experiments or processed for adoptive transfer. The murine neutrophil isolation protocol routinely yields cell suspensions that are >95% pure and viable, as determined by cresyl violet and trypan blue exclusion, respectively.
Neutrophil migration assays were performed using a Transwell migration assay. Isolated neutrophils (1 × 10^5 cells/100 μL) from WT or CB2R^-/- mice were incubated with vehicle (0.01% DMSO), or various concentrations of RO8671304 or RO6851228 at 37 °C, 5% CO2 for 30 min. Cells were then loaded into the upper chamber of 3 μm Transwell inserts (Corning Life Sciences, Corning, NY, USA) coated with 5% FBS. Transwells were placed in 24-well plates containing RPMI (1% FBS) alone or 10^−8 M chemokine C–X–C motif ligand 2 (CXCL2)/[…] (Peprotech, Rocky Hill, NJ, USA). Plates were incubated for 1 h at 37 °C, 5% CO2. To determine the number of neutrophils that migrated from the top to the bottom chamber, the filter was removed and neutrophils in the lower chamber gently pipetted to evenly distribute and sink to the bottom of the pate. An Olympus inverted bright-field microscope with an Infinity 3 camera (Lumenera, Ottawa, ON, Canada) was used to photograph 12 random fields (10× magnification) of each well. The number of migrated neutrophils was then determined using ImageJ. […]

[4] = FaSSIF pH 6.5, read-out: Thermodynamic Solubility in FaSSIF (pH 6.5)
[5] = FeSSIF pH 5.5, read-out: Thermodynamic Solubility in FeSSIF (pH 5.5)
[6] = aqueous phosphate buffer pH 6.5, read-out: Thermodynamic Solubility in Aqueous Buffer (pH 6.5)
[7] = [3H]-CP55940 displacement; * previously published; read-out: hCB1R: Ki; cited from earlier work
[8] = read-out: mouse CB2R: beta arrestin EC50
[9] = underlying data previously published

mouse CB2R, sequence (P47936 whole entry, the tested form may be a part): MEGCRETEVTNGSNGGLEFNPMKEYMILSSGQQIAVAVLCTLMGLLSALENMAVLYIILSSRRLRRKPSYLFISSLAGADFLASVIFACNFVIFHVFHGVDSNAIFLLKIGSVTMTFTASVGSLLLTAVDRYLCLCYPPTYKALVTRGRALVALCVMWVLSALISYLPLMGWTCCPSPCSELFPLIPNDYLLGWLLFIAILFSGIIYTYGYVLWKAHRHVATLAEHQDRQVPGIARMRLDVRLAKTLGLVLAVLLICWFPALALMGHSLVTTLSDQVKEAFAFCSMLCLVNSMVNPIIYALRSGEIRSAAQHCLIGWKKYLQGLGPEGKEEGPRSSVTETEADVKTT
CYP2D6, sequence (P10635 whole entry): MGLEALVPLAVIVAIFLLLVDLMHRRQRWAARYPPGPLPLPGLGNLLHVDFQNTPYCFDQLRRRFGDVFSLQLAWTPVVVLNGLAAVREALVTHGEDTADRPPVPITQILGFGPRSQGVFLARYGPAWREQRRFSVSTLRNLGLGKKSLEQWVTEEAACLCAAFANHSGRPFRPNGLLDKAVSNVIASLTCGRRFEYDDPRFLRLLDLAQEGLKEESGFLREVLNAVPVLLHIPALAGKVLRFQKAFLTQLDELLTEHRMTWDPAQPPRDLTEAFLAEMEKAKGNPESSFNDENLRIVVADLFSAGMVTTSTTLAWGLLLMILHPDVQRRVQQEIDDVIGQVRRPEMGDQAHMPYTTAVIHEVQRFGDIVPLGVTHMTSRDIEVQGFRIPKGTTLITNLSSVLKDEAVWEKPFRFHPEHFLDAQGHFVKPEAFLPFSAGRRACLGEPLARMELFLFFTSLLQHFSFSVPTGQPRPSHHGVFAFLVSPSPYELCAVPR
T1 sequence (P21554 whole entry): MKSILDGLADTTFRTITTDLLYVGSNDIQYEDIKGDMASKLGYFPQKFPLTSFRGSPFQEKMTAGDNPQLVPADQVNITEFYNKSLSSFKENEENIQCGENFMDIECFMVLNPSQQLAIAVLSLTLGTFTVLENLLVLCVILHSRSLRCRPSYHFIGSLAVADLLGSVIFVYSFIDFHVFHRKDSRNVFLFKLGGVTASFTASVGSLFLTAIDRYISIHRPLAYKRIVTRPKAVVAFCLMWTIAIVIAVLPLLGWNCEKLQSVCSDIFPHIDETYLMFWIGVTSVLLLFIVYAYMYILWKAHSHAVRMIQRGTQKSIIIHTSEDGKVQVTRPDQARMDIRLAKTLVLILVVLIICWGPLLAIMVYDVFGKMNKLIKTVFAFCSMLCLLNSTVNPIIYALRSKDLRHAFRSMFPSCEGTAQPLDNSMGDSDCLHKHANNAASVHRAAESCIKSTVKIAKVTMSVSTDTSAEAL
T2 sequence (P34972 whole entry, the tested form may be a part): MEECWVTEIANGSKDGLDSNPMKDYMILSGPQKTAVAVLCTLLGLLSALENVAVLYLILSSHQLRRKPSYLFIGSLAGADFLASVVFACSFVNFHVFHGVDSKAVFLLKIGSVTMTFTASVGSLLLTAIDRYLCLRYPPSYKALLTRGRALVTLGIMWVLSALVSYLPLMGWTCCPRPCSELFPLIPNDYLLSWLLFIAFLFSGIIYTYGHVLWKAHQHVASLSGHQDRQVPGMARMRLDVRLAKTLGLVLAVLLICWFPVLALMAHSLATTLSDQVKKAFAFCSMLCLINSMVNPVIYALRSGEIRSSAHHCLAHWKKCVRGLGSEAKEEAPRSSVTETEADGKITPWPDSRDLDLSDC

Structure (SMILES) | solubility thermodynamic [1, 4] | solubility thermodynamic [1, 5] | solubility thermodynamic [1, 6] | IC50 (CYP2D6; read-out: IC50 CYP2D6) | Ki (human CB1R; [7]) | Hepatocyte Clearance mouse [2] | T1/2 [3] | Tmax [3] | mouse CB2R: beta arrestin efficacy (mouse CB2R) | EC50 (mouse CB2R; [8]) | clearance in mouse hepatocytes (class in words) [2] | F [3] | activity in mouse CB2R β-arrestin assay (mouse CB2R) | hCB2R: beta arrestin efficacy (human CB2R; * previously published) | functional behaviour in hCB2R β-arrestin assay (human CB2R; [9]) | CXCL2-induced neutrophil migration (neutrophils from WT mice) | other results
CCCCCCC(C)(C)c1cc(OC)c(C2=C[C@H]3CC[C@]2(CO)C3(C)C)c(OC)c1 [HU910, {(1S,4R)-2-[2,6-dimethoxy-4-(2-methyloctan-2-yl)phenyl]-7,7-dimethylbicyclo[2.2.1]hept-2-en-1-yl}methanol, reference compound] | 59 µg/mL (≈ 142 µM) | 128 µg/mL (≈ 309 µM) | < 1 µg/mL | > 50 µM | 3.73 µM | 34 μL/min/Mio cells | 5.2 h | 1 h | 54% | 0.224 µM |  |  |  |  |  |  | functional behaviour in hCB2R β-arrestin assay (human CB2R): full agonist; hCB2R: beta arrestin efficacy (human CB2R): 109, 81 * %; EC50 (human CB2R): 0.109 µM; hCB2R β-arrestin EC50/mouse CB2R β-arrestin EC50 (mouse CB2R): 0.5
Cc1nc([C@](C)(CC2CC2)NC(=O)c2cc(OCC(F)(F)F)c(C3CC3)cn2)no1 [RO6871085, 5-Cyclopropyl-N-[(2S)-1-cyclopropyl-2-(5-methyl-1,2,4-oxadiazol-3-yl)propan-2-yl]-4-(2,2,2-trifluoroethoxy)pyridine-2-carboxamide] | 37 µg/mL (≈ 87.2 µM) | 56 µg/mL (≈ 132 µM) | 3 µg/mL (≈ 7.07 µM) | 34 µM | 3.38 µM | 27 μL/min/Mio cells | 8.42 h | 0.5 h |  | > 30 µM | medium | 68% | not active |  |  |  | 
CCCCCCC(C)(C)c1cc(OC)c([C@H]2C=C(CO)[C@H]3C[C@@H]2C3(C)C)c(OC)c1 [HU308, {(1S,4S,5S)-4-[2,6-Dimethoxy-4-(2-methyloctan-2-yl)phenyl]-6,6-dimethylbicyclo[3.1.1]hept-2-en-2-yl}methanol, reference compound] | 52 µg/mL (≈ 125 µM) | 60 µg/mL (≈ 145 µM) | < 1 µg/mL |  |  | 4.7 μL/min/Mio cells | 3.3 h | 0.5 h | 76% |  |  |  |  | 107% | full agonist |  | IC50 (CYP2D6): > 50 µM; Ki (human CB1R; read-out: hCB1R: Ki; [3H]-CP55940 displacement; * previously published; cited from earlier work): 4.6 µM; EC50 (mouse CB2R): 0.592 µM
CNC(=O)[C@@H](NC(=O)c1cc(OCC2(C)COC2)c(C2CC2)cn1)C(C)(C)C [RO6851228, 5-Cyclopropyl-N-[(2S)-3,3-dimethyl-1-(methylamino)-1-oxobutan-2-yl]-4-[(3-methyloxetan-3-yl)methoxy]pyridine-2-carboxamide] | 421 µg/mL (≈ 1080 µM) | 243 µg/mL (≈ 624 µM) | 497 µg/mL (≈ 1280 µM) | > 50 µM | 6.49 µM | 46 μL/min/Mio cells | 1.17 h | 0.25 h |  | > 30 µM |  | 31% | not active |  |  | did not affect CXCL2-induced neutrophil migration | 
CC(C)(C)c1nc(N2CC[C@H](O)C2)c2nnn(Cc3nnnn3C3CC3)c2n1 [RO6871304, (3S)-1-{5-tert-butyl-3-[(1-cyclopropyl-1H-tetrazol-5-yl)methyl]-3H-[1,2, 3]triazolo[4,5-d]pyrimidin-7-yl}pyrrolidin-3-ol] |  |  |  | > 50 µM | > 10 µM | 140 μL/min/Mio cells |  |  | 94% | 0.026 µM | high |  |  | 119% | full agonist | inhibited neutrophil migration towards CXCL2 in a dose-dependent fashion | IC50 (neutrophils from WT mice; Neutrophil, towards 10 nM CXCL2, WT mouse neutrophils, read-out: IC50 for inhibition of neutrophil migration): 0.0066 µM; EC50 (human CB2R; * previously published): 0.021 µM
